# Test results taken from patent US20250255867A1 (Kadmon Corporation, LLC, priority 2022, published 2025).
# Several values for one entry are separate records, joined by “and”; a condition that tells them apart may be missing. Equal values may be shown once.
# Experiments:
# [1] = system: patients with cGVHD; assay: Example 1: Global Severity Rating and participant self-reported symptom activity; assay type: in vivo, human
# Description: Maximal Improvement from Baseline in Global Severity Rating (GSR) by Clinician-reported cGVHD Assessment. The GSR assessment was performed by asking the participants to rate their disease severity of cGVHD symptoms on a 0 to 10-point numeric rating scale, where score 0 indicated ‘not at all severe cGVHD symptoms’ and score 10 indicated ‘most severe cGVHD symptoms possible’. The response was defined using the scores from 9 organs: skin, eyes, mouth, esophagus, upper gastrointestinal (GI) track, lower GI tract, liver, lungs, and joints and fascia plus GSR. End of treatment (EOT) visit was performed within 3 days after the participant's last dose of study drug. Baseline value was defined as valid and last non-missing value obtained within 28 days prior to participant receiving first study medication. […] Analysis was performed on mITT population.
# Number of Participants With Maximal Improvement From Baseline in Symptom Activity by cGVHD Activity Assessment Participant Self-Report. cGVHD symptom severity was self-reported by participants. Participants were asked to rate their disease symptom severity over the last week on the following questions: skin itching at its worst, moth dryness at its worst, mouth pain at its worst, mouth sensitivity at its worst, main compliant on eyes, symptom severity on eyes. The severity rating was done on a 0 to 10-point numeric rating scare, where score 0 indicated ‘not at all severe cGVHD symptoms’ and score 10 indicated ‘most severe cGVHD symptoms possible’. EOT visit was performed within 3 days after the participant's last dose of study drug. Baseline value was defined as valid and last non-missing value obtained within 28 days prior to participant receiving first study medication. […] Analysis was performed on mITT population.
# [2] = system: subjects with BOS; assay: Example 3: Lee Symptom Scale lung score in BOS; assay type: in vivo, human
# From the text: Following the methodology used for the LSS, we identified a 10-point difference (half a standard deviation from baseline scores) as being a clinically meaningful organ-specific change in this dataset. (Lee S et al. Development and validation of a scale to measure symptoms of chronic graft-versus-host disease. Biol Blood Marrow Transplant 2002; 8 (8): 444-452; Teh C et al. Reliability and Validity of the Modified 7-Day Lee Chronic Graft-versus-Host Disease Symptom Scale. Biol Blood Marrow Transplant 2020; 26 (3): 562-567.) Forty subjects (68%) experienced a clinically meaningful improvement (10-point reduction) in the LSS lung score.
# [3] = Example 3: respiratory infections and overall survival; assay type: in vivo
# From the text: The median age at enrollment was 42.5 years (range, 26-77). Allogeneic HCT was predominantly performed with myeloablative conditioning (n=44, 75%) and peripheral blood stem cells (n=54, 92%) from an HLA-matched donor (n=53, 90%). The median time from cGVHD diagnosis to enrollment was 22 months (range, 1-161). […] Most subjects (n=39, 66%) had at least 4 organs involved at enrollment. The median number of prior lines of systemic therapy was 3 (range, 1-6). Overall cGVHD response to the line of systemic therapy prior to enrollment was partial response (n=12, 20%), stable disease (n=25, 42%), progressive disease (n=12, 20%) or unknown (n=10, 17%). […] At the time of analysis, 16 subjects remained on therapy. […] Thirty-one subjects (53%) experienced at least 1 respiratory infection (any grade) while on treatment, with 11 subjects experiencing 32 episodes. These infections were categorized as upper respiratory infections (n=33) or pneumonia (n=13). […] With a median follow-up among survivors of 27 months (range, 1.8-55), the 2-year overall survival is 82% (95% CI: 70, 90).
smiles,measurement,setting,value
"CC(C)NC(=O)COc1cccc(-c2nc(Nc3ccc4[nH]ncc4c3)c3ccccc3n2)c1 [Belumosudil, 2-{3-[4-(1H-indazol-5-ylamino)-2-quinazolinyl]phenoxy}-N-(propan-2-yl) acetamide]",Maximal improvement from baseline in GSR of 0,[1]; Cohort 1 200 mg QD,5 (29%) participants
same,Maximal improvement from baseline in GSR of 1,[1]; Cohort 1 200 mg QD,0 (0%) participants
same,Maximal improvement from baseline in GSR of 3,[1]; Cohort 1 200 mg QD,0 (0%) participants
same,Maximal improvement from baseline in GSR of −1,[1]; Cohort 1 200 mg QD,1 (6%) participants
same,Maximal improvement from baseline in GSR of −2,[1]; Cohort 1 200 mg QD,2 (12%) participants
same,Maximal improvement from baseline in GSR of −4,[1]; Cohort 1 200 mg QD,2 (12%) participants
same,Maximal improvement from baseline in GSR of −5,[1]; Cohort 1 200 mg QD,2 (12%) participants
same,Maximal improvement from baseline in GSR of −6,[1]; Cohort 1 200 mg QD,0 (0%) participants
same,Maximal improvement from baseline in GSR of −7,[1]; Cohort 1 200 mg QD,0 (0%) participants
same,Maximal improvement in self-reported symptom activity of 0,[1]; Cohort 1 200 mg QD,1 participants
same,Maximal improvement in self-reported symptom activity of 1,[1]; Cohort 1 200 mg QD,0 participants
same,Maximal improvement in self-reported symptom activity of 2,[1]; Cohort 1 200 mg QD,0 participants
same,Maximal improvement in self-reported symptom activity of 4,[1]; Cohort 1 200 mg QD,1 participants
same,Maximal improvement in self-reported symptom activity of −1,[1]; Cohort 1 200 mg QD,2 participants
same,Maximal improvement in self-reported symptom activity of −2,[1]; Cohort 1 200 mg QD,2 participants
same,Maximal improvement in self-reported symptom activity of −3,[1]; Cohort 1 200 mg QD,2 participants
same,Maximal improvement in self-reported symptom activity of −4,[1]; Cohort 1 200 mg QD,2 participants
same,Maximal improvement in self-reported symptom activity of −5,[1]; Cohort 1 200 mg QD,2 participants
same,Maximal improvement in self-reported symptom activity of −6,[1]; Cohort 1 200 mg QD,0 participants
same,Maximal improvement in self-reported symptom activity of −7,[1]; Cohort 1 200 mg QD,3 participants
same,Maximal improvement in self-reported symptom activity of −8,[1]; Cohort 1 200 mg QD,0 participants
same,Maximal improvement from baseline in GSR of 0,[1]; Cohort 2 200 mg BID,4 (25%) participants
same,Maximal improvement from baseline in GSR of 1,[1]; Cohort 2 200 mg BID,1 (6%) participants
same,Maximal improvement from baseline in GSR of 3,[1]; Cohort 2 200 mg BID,1 (6%) participants
same,Maximal improvement from baseline in GSR of −1,[1]; Cohort 2 200 mg BID,2 (13%) participants
same,Maximal improvement from baseline in GSR of −2,[1]; Cohort 2 200 mg BID,4 (25%) participants
same,Maximal improvement from baseline in GSR of −3,[1]; Cohort 2 200 mg BID,0 (0%) participants
same,Maximal improvement from baseline in GSR of −4,[1]; Cohort 2 200 mg BID,0 (0%) participants
same,Maximal improvement from baseline in GSR of −5,[1]; Cohort 2 200 mg BID,2 (13%) participants
same,Maximal improvement from baseline in GSR of −6,[1]; Cohort 2 200 mg BID,2 (13%) participants
same,Maximal improvement from baseline in GSR of −7,[1]; Cohort 2 200 mg BID,0 (0%) participants
same,Maximal improvement in self-reported symptom activity of 0,[1]; Cohort 2 200 mg BID,1 participants
same,Maximal improvement in self-reported symptom activity of 1,[1]; Cohort 2 200 mg BID,0 participants
same,Maximal improvement in self-reported symptom activity of 2,[1]; Cohort 2 200 mg BID,1 participants
same,Maximal improvement in self-reported symptom activity of 4,[1]; Cohort 2 200 mg BID,0 participants
same,Maximal improvement in self-reported symptom activity of −1,[1]; Cohort 2 200 mg BID,2 participants
same,Maximal improvement in self-reported symptom activity of −2,[1]; Cohort 2 200 mg BID,3 participants
same,Maximal improvement in self-reported symptom activity of −3,[1]; Cohort 2 200 mg BID,2 participants
same,Maximal improvement in self-reported symptom activity of −4,[1]; Cohort 2 200 mg BID,2 participants
same,Maximal improvement in self-reported symptom activity of −5,[1]; Cohort 2 200 mg BID,0 participants
same,Maximal improvement in self-reported symptom activity of −6,[1]; Cohort 2 200 mg BID,1 participants
same,Maximal improvement in self-reported symptom activity of −7,[1]; Cohort 2 200 mg BID,2 participants
same,Maximal improvement in self-reported symptom activity of −8,[1]; Cohort 2 200 mg BID,0 participants
same,Maximal improvement from baseline in GSR of 0,[1]; Cohort 3 400 mg QD,3 (14%) participants
same,Maximal improvement from baseline in GSR of 1,[1]; Cohort 3 400 mg QD,1 (5%) participants
same,Maximal improvement from baseline in GSR of 3,[1]; Cohort 3 400 mg QD,0 (0%) participants
same,Maximal improvement from baseline in GSR of −1,[1]; Cohort 3 400 mg QD,4 (19%) participants
same,Maximal improvement from baseline in GSR of −2,[1]; Cohort 3 400 mg QD,4 (19%) participants
same,Maximal improvement from baseline in GSR of −3,[1]; Cohort 3 400 mg QD,1 (5%) participants
same,Maximal improvement from baseline in GSR of −4,[1]; Cohort 3 400 mg QD,3 (14%) participants
same,Maximal improvement from baseline in GSR of −5,[1]; Cohort 3 400 mg QD,0 (0%) participants
same,Maximal improvement from baseline in GSR of −6,[1]; Cohort 3 400 mg QD,0 (0%) participants
same,Maximal improvement from baseline in GSR of −7,[1]; Cohort 3 400 mg QD,2 (10%) participants
same,Maximal improvement in self-reported symptom activity of 0,[1]; Cohort 3 400 mg QD,0 participants
same,Maximal improvement in self-reported symptom activity of 1,[1]; Cohort 3 400 mg QD,1 participants
same,Maximal improvement in self-reported symptom activity of 2,[1]; Cohort 3 400 mg QD,2 participants
same,Maximal improvement in self-reported symptom activity of 4,[1]; Cohort 3 400 mg QD,0 participants
same,Maximal improvement in self-reported symptom activity of −1,[1]; Cohort 3 400 mg QD,2 participants
same,Maximal improvement in self-reported symptom activity of −2,[1]; Cohort 3 400 mg QD,2 participants
same,Maximal improvement in self-reported symptom activity of −3,[1]; Cohort 3 400 mg QD,2 participants
same,Maximal improvement in self-reported symptom activity of −4,[1]; Cohort 3 400 mg QD,1 participants
same,Maximal improvement in self-reported symptom activity of −5,[1]; Cohort 3 400 mg QD,2 participants
same,Maximal improvement in self-reported symptom activity of −6,[1]; Cohort 3 400 mg QD,4 participants
same,Maximal improvement in self-reported symptom activity of −7,[1]; Cohort 3 400 mg QD,0 participants
same,Maximal improvement in self-reported symptom activity of −8,[1]; Cohort 3 400 mg QD,1 participants
same,Subjects with clinically meaningful improvement (10-point reduction) in LSS lung score,[2]; 59 subjects,68%
same,Clinically meaningful improvement in LSS lung score,[2]; baseline NIH lung score 1,66%
same,Clinically meaningful improvement in LSS lung score,[2]; baseline NIH lung score 2,61%
same,Clinically meaningful improvement in LSS lung score,[2]; baseline NIH lung score 3,100%
same,Clinically meaningful improvement in LSS lung score,[2]; non-responders,68% and 67.5%
same,Clinically meaningful improvement in LSS lung score,[2]; subjects with 35% best improvement in % FEV1,61%
same,Clinically meaningful improvement in LSS lung score,[2]; subjects with <5% best improvement in % FEV1,69%
same,Subjects with at least 1 respiratory infection (any grade) on treatment,[3]; 59 BOS subjects,53%
same,2-year overall survival,"[3]; 95% CI: 70, 90",82%
